{"source": "patent EP4806892A1", "about": "“CEREBLON E3 UBIQUITIN LIGASE INHIBITOR” (GAN & LEE PHARMACEUTICALS CO., LTD., priority 2023, dated 2025)", "format_in_all_cases": "cell-based", "key": {"AR protein": {"target": "T1, AR protein (Homo sapiens, UniProt P10275, T878A)", "T1 construct": "AR-positive human prostate cancer cells (LNCaP, cell source: ATCC); host or cells: LNCaP", "T1 sequence (P10275 whole entry T878A)": "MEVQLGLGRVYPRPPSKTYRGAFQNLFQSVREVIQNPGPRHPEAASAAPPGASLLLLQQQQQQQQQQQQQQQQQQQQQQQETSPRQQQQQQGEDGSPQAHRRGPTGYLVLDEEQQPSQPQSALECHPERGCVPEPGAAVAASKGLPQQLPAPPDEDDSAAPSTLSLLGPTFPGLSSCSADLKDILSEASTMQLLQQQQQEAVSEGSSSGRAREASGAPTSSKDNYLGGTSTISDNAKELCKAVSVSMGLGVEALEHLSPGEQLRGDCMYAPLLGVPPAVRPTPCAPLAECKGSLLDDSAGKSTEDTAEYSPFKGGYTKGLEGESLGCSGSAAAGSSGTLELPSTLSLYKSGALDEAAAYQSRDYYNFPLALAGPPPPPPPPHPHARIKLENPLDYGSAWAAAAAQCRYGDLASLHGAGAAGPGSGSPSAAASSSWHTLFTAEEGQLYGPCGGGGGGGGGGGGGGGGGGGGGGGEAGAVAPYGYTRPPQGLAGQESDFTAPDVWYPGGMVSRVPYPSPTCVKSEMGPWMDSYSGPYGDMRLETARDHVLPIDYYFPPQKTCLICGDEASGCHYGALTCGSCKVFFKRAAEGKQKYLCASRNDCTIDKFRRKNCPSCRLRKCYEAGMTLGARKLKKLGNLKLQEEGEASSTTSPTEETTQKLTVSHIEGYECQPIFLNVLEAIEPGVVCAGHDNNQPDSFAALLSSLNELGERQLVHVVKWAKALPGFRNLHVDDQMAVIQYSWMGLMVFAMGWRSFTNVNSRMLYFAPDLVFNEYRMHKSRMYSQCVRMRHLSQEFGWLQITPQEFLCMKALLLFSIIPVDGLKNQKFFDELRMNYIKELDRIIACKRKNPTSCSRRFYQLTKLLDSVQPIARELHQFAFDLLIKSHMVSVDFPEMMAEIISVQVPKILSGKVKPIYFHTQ", "T1 sequence (Q96SW2 whole entry partner)": "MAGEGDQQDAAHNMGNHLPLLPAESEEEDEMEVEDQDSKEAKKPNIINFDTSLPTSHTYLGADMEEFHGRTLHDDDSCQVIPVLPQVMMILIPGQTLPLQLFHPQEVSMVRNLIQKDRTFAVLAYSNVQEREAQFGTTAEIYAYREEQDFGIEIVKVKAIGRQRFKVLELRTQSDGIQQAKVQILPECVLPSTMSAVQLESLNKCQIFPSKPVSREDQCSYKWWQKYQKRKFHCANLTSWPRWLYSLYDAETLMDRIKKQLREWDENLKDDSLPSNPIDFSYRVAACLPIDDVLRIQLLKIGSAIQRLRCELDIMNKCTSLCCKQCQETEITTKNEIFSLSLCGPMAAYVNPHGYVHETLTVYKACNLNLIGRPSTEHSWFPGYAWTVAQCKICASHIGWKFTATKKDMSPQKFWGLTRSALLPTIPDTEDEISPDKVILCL", "assay": "AR protein degradation in LNCaP cells (Western blot)", "conditions": "8 hours", "procedure": "AR-positive human prostate cancer cells (LNCaP, cell source: ATCC) were cultured in RPMI 1640 (ATCC catalog number 30-2001) containing 10% FBS (Hyclone catalog number SH30406.05), and the cells were inoculated into a six-well microplate (Thermo catalog number 140675) at a density of 1.5 × 10^5 cells/well. After the cells were cultured overnight in a carbon dioxide incubator (ESCO), the prepared compound of the present invention and the positive control sample ARV-766 (source: energy chemical) solution of different concentrations were added at a volume of 1 µL/well to make the final concentrations of the compound and the positive control sample reach 100nM and 10nM, respectively. At the same time, the corresponding solvent control was set and cultured for 8 hours. After 8 hours of culture, the culture medium was removed, the cells were washed with PBS, and RIPA lysis buffer containing 1% Protease Inhibitor Cocktail was added. After lysis and centrifugation, the total protein extract was obtained, and the protein concentration in the extract was detected by BCA method. Protein electrophoresis was performed using SDS-PAGE, and then the protein was transferred to a PVDF (Millipore Sigma catalog number PSRP010R5) membrane at a constant voltage of 100V for 60 minutes. The PVDF membrane was placed in a 5% milk powder 1×TBST solution and blocked at room temperature for 1 hour. The primary antibody solution (Anti-Androgen receptor, Cell Signaling Technology catalog number: 5153S; 1:2000 dilution) was prepared and incubated at 4°C overnight. The primary antibody solution was discarded and the PVDF membrane was washed with 1×TBST for 5 minutes each time, three times. The secondary antibody solution (Thermo, catalog number SA5-35571; 1:7500 dilution) was prepared and incubated at room temperature for 1 hour. The secondary antibody solution was discarded and the PVDF membrane was washed with 1×TBST for 5 minutes each time, three times. A dual-color infrared laser imaging system (Licor catalog number Odyssey CLX) was used for Western membrane imaging. The Image Studio software was used to analyze the grayscale of the bands. GAPDH protein bands were also detected for each sample as an internal reference. The AR protein degradation rate of the compound and the positive control sample was calculated based on the grayscale of the protein bands. Among them, \"A\" means degradation rate ≥ 50%, \"B\" means 50%> degradation rate ≥ 20%, \"C\" means 20% degradation rate ≥ 10%, and \"D\" means degradation rate less than 10%."}, "LNCAP cell": {"system": "LNCAP cell", "assay": "LNCaP cell proliferation inhibition (WST-8)", "conditions": "Homo sapiens, LNCaP FGC cells, 96 hours, read-out: IC50 for inhibiting LNCAP cell proliferation", "procedure": "LNCaP FGC cells (ATCC, CLR-1740) were cultured in RPMI 1640 (ATCC, 30-2001) complete medium supplemented with 10% fetal bovine serum (Hyclone, SH30406.05). On the first day of the experiment, LNCaP FGC cells were seeded at a density of 5,000 cells/well in 96-well plates using RPMI 1640 medium supplemented with 10% fetal bovine serum, with 100 µL of cell suspension per well. The cells were cultured overnight in a 37°C, 5% CO2 cell incubator. On the second day, 100 µL of different concentrations of the compound to be tested and the positive control sample ARV-766 (source: Energy Chemical) prepared in culture medium were added to each well. The final concentration of the compound was 9 concentration points of 5-fold serial dilution starting from 10 µM. The wells to which 100 µL of RPMI 1640 culture medium containing 10% fetal bovine serum was added were set as controls. The cells were cultured in a cell culture incubator at 37°C and 5% CO2 for 96 hours. On the sixth day, the 96-well cell culture plate was removed, and 1/10 volume of WST-8 (Beytime, C0040) reagent was added to each well. The absorbance at 450 nm was detected using a microplate reader (TECAN, F50)."}, "VCaP cell": {"system": "VCaP cell", "assay": "VCaP cell proliferation inhibition (WST-8)", "conditions": "Homo sapiens, VCaP cells, 168 hours, read-out: IC50 for inhibiting VCAP cell proliferation", "procedure": "VCaP cells (ATCC, CRL-2876) were cultured in DMEM (Gibco, 11995-065) complete medium containing 10% fetal bovine serum (Hyclone, SH30406.05). On the first day of the experiment, VCaP cells were seeded at a density of 15,000 cells/well in a 96-well plate using DMEM medium containing 10% fetal bovine serum, with 100 µL of cell suspension per well, and cultured overnight in a cell culture incubator at 37°C and 5% CO2. […] The final concentration of the compound was 9 concentration points of 5-fold serial dilution starting from 10 µM. The wells to which 100 µL of DMEM medium containing 10% fetal bovine serum was added were set as blank controls and cultured in a cell culture incubator at 37°C and 5% CO2 for 168 hours. On the ninth day, the 96-well cell culture plate was removed and 1/10 volume of WST-8 (Beytime, C0040) reagent was added to each well. The absorbance at 450 nm was measured using a microplate reader (TECAN, F50)."}, "T-47D cells": {"system": "T-47D cells", "assay": "T-47D cell proliferation inhibition (CCK-8)", "conditions": "Homo sapiens, T47D, 144 h, 6 days", "procedure": "The complete culture medium required for breast ductal carcinoma T-47D cells is 1640 (ATCC, Product number: A10491-01) basal medium containing 10% fetal bovine serum. T-47D cells were seeded in 96-well plates at a density of 3,000/well, and different concentrations of PROTAC compounds 1-55 provided in the embodiments of the present invention and the positive control sample ARV-471 (source: Inokai) were prepared to treat the cells and incubated at 37°C, 5% CO2 in a cell culture incubator for 6 days. According to the manufacturer's instructions, the CCK-8 kit (Beyotime, Product number: C0040) was used to detect cell viability. The IC50 of each compound for 6 days was calculated using GraphPadPrism software based on the inhibition rate. Table 6: IC50 value for the inhibition of T-47D cell proliferation by PROTAC compounds and positive control sample"}, "MCF-7 cells": {"system": "MCF-7 cells", "assay": "MCF-7 cell proliferation inhibition (CCK-8)", "conditions": "Homo sapiens, MCF7, 144 h, 6 days", "procedure": "The complete culture medium required for breast cancer MCF-7 cells (source ATCC) is DMEM (gibco, Product number: 11995-065) basal medium containing 10% fetal bovine serum. MCF-7 cells were seeded in 96-well plates at a density of 800 cells/well, and different concentrations of PROTAC compounds 1-55 provided in the embodiments of the present invention and the positive control sample ARV-471 (source: Inokai) were prepared to treat cells. The cells were incubated at 37 °C and 5% CO2 in a cell culture incubator for 6 days. Cell viability was detected using a CCK-8 kit (Beyotime, Product number: C0040) according to the manufacturer's instructions. The IC50 value of each PROTAC compound for 6 days was calculated using GraphPad Prism software based on the inhibition rate. Table 7: IC50 value for the inhibition of MCF-7 cell proliferation by PROTAC compounds of the present disclosure and positive control sample"}}, "data": [{"smiles": "COc1cc(N2CC3(CCN(c4ccc(C(=O)N5CCC(CN6CCC7(CCc8ccc(N9CCC(=O)NC9=O)cc8O7)CC6)CC5)cc4)CC3)C[C@@H]2C)ccc1C#N", "note": "[A-P-83, (S)-4-(8-(4-(4-((7-(2,4-dioxotetrahydropyrimidin-1(2H)-yl)spiro[chroman-2,4'-piperidine]-1'-yl)methyl)piperidine-1-carbonyl)phenyl)-3-methyl-2,8-diazaspiro[4.5]dec-2-yl)-2-methoxybenzonitrile]", "values": [{"measurement": "Degradation rate of AR protein in LNCAP cells", "setting": "AR protein; 10 nM", "result": "A (degradation rate ≥ 50%)"}, {"measurement": "Degradation rate of AR protein in LNCAP cells", "setting": "AR protein; 100 nM", "result": "A (degradation rate ≥ 50%)"}, {"measurement": "IC50", "setting": "LNCAP cell", "result": 550, "unit": "nM"}, {"measurement": "IC50", "setting": "VCaP cell", "result": "< 0.026", "unit": "nM"}]}, {"smiles": "O=C1CC[C@H](N2Cc3cc(N4CCN(CC5CCN(c6ccc([C@@H]7c8ccc(O)cc8CC[C@@H]7c7ccccc7)cc6)CC5)CC4)ccc3C2=O)C(=O)N1", "note": "[ARV-471, reference compound]", "values": [{"measurement": "IC50", "setting": "T-47D cells", "result": 2.69, "unit": "nM"}, {"measurement": "IC50", "setting": "MCF-7 cells", "result": 113, "unit": "nM"}]}, {"smiles": "O=C1CCN(c2ccc3c(c2)OCC32CCN(C[C@H]3CC[C@@H](OC4CCN(c5ccc([C@@H]6c7ccc(O)cc7CC[C@@H]6c6ccccc6)cc5)CC4)CC3)CC2)C(=O)N1", "note": "[ER-P-4, 1-(1'-(((1S,4S)-4-((1-(4-((1R,2S)-6-hydroxy-2-phenyl-1,2,3,4-tetrahydronaphthalen-1-yl)phenyl)piperidin-4-yl)oxy)cyclohexyl)methyl)-2H-spiro [benzofuran-3,4'-piperidine]-6-yl)dihydropyrimidine-2,4(1H,3H)-dione]", "values": [{"measurement": "IC50", "setting": "T-47D cells", "result": 52.5, "unit": "nM"}, {"measurement": "IC50", "setting": "MCF-7 cells", "result": 944, "unit": "nM"}]}, {"smiles": "O=C1CCC(c2ccc3c(c2)OC2(CC3)CCN(C[C@H]3CC[C@@H](OC4CCN(c5ccc([C@@H]6c7ccc(O)cc7CC[C@@H]6c6ccccc6)cc5)CC4)CC3)CC2)C(=O)N1", "note": "(stereo partly drawn) [ER-P-5, 3-(1'-(((1S,4S)-4-((1-(4-((1R,2S)-6-hydroxy-2-phenyl-1,2,3,4-tetrahydronaphthyl-1-yl)phenyl)piperidin-4-yl)oxy)cyclohexyl)methyl)spiro[chroman-2,4'-piperidine]-7-yl)piperidine-2,6-dione]", "values": [{"measurement": "IC50", "setting": "MCF-7 cells", "result": 873, "unit": "nM"}]}, {"smiles": "O=C1CCN(c2ccc3c(c2)CC2(CCN(C[C@H]4CC[C@@H](OC5CCN(c6ccc([C@@H]7c8ccc(O)cc8CC[C@@H]7c7ccccc7)cc6)CC5)CC4)CC2)CO3)C(=O)N1", "note": "[ER-P-6, 1-(1'-(((1S,4S)-4-((1-(4-((1R,2S)-6-hydroxy-2-phenyl-1,2,3,4-tetrahydronaphthalen-1-yl)phenyl)piperidin-4-yl)oxy)cyclohexyl)methyl)spiro[benzo-dihydro-3,4'-piperidin]-6-yl)dihydropyrimidine-2,4(1H,3H)-dione]", "values": [{"measurement": "IC50", "setting": "T-47D cells", "result": 367, "unit": "nM"}, {"measurement": "IC50", "setting": "MCF-7 cells", "result": 847, "unit": "nM"}]}]}
